These results are taken from patent US11498929B2, “Chromenopyrimidine derivatives as phosphatidylinsitol phosphate kinase inhibitors” (Hibercell, Inc., priority 2019, dated 2022).

In general, EC50 refers to the concentration at which the effect is half-maximal. High values mean a need for much substance, low ones an effect from little substance. One may read the IC50 as the concentration that gives 50% inhibition. Higher therefore signals a need for much substance.

One test concerns MOLM-16. The test is described as follows: MOLM-16 EC50 assay. It is filed as cell-based. The settings on record: MOLM16.
In another test the target is T1, PIP4K2A (Homo sapiens, UniProt P48426).
T1 construct: GST; made in house; host or cells: E. coli
T1 sequence (P48426 1-406): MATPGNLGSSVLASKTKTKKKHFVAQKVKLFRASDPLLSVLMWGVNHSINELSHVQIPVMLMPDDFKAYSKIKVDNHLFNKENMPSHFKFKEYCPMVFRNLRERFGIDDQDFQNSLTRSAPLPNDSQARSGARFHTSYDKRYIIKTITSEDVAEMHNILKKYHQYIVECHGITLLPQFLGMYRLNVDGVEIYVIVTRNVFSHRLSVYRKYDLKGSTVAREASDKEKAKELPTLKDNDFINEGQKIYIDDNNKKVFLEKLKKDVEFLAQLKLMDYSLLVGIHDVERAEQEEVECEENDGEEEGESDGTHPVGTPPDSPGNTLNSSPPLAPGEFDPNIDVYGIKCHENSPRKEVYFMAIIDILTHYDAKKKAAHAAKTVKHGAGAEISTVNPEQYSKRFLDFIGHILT
Put plainly: Kinase Assay - PIP4K2 A (inhibition of PIP4K2 A kinase assay). It is filed as biochemical. The conditions noted are these: compounds listed under IC50 bin headings. The gist of the method:
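Method 1: full-length PIP4K2A mix (4 nM, 100 µM PI(5)P diC8), 15 min pre-incubation, 60 µM ATP solution added, 1 h RT; ADP-Glo. Method 2: 0.5 nM GST-PIP4K2A, 80 uM PI5P plus DOPE, 10 uM ATP, 1 h 27 C pre-incubation, 1 h reaction; ADP-Glo, ADP calibration, IC50.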

Test [1] has as its target T2, PIP4K2 B (GST-tagged PIP4KtypeIIB) (Homo sapiens, UniProt P78356).
T2 construct: GST; made in house; host or cells: E. coli
T2 sequence (P78356 1-416): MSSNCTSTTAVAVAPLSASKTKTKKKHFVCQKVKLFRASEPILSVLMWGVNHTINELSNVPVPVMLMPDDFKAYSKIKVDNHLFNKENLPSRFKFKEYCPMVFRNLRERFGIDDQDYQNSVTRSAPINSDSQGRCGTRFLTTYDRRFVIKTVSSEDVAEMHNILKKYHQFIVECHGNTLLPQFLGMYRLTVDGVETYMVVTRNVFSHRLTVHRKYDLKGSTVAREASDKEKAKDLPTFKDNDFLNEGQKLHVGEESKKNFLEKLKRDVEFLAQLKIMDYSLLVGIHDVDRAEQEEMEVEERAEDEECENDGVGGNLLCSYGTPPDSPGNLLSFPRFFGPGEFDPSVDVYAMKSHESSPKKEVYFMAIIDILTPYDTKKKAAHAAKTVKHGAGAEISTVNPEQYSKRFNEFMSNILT
The test is described as follows: Kinase Assay - PIP4K2 B (inhibition of PIP4K2 B kinase assay). It is filed as biochemical. The settings on record: compounds listed under IC50 bin headings. The procedure, abridged:
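E. coli-expressed GST-PIP4K2B (5 nM) was preincubated 1 h at 27 C with compound and PI5P:DOPE lipid (80 uM PI5P) in 50 mM HEPES pH 7.3, 10 mM MgCl2, 0.01% triton-X100, 5% DMSO. Reactions ran 2 h after adding 100 uM GTP, highest compound 4.8 uM. GDP was detected by Transcreener FI fluorescence, and IC50 came from residual activity versus log concentration.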

On to `CCN(CC)CCN1CCOc2ncc(Nc3ncc4c(n3)C(C)(C)Oc3cc(N5CCCC5=O)ccc3-4)cc21` [Compound 36, 1-[3-({1-[2-(diethylamino)ethyl]-1H,2H,3H-pyrido[2,3-b][1,4]oxazin-7-yl}amino)-5,5-dimethyl-5H-chromeno[3,4-d]pyrimidin-8-yl]pyrrolidin-2-one], for which the EC50 in the test on MOLM-16 lay in the range of 10 to 100 nM. For the same compound, the IC50 was 100 to 1000 nM at PIP4K2A and over 1000 nM in test [1].
